Measurements taken from PubChem BioAssay AID2202554 (NIEHS Division of Translational Toxicology (DTT)).
Results filed as inconclusive are left out. Calls of active or inactive are those of the source. The rule behind the calls is not given here.

system: S. typhimurium/E. coli reverse mutation, colony counts; assay: Bacterial reverse mutation test (aka Ames test) summary data;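 note: His-minus Salmonella and trp-minus E. coli WP2 uvrA pKM101 with or without liver S9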
Source text: The Ames test uses bacteria cultures to determine whether a substance causes mutations. Because there is a significant overlap between substances that are mutagens and those that are carcinogens, a quick and inexpensive mutagenicity test is useful as an initial screening for possible carcinogens.
The Ames test relies on specific strains of S. typhimurium, namely: TA97, TA98, TA100, TA102, TA104, TA1535, TA1537, and TA1538. In addition to the S. typhimurium strains, the test may also use the E. coli strain WP2 uvrA pKM101.
Each of the bacterial strains has a mutation that prevents it from making an amino acid (a protein building block) required for normal cell growth. The S. typhimurium strains are unable to manufacture histidine; the E. coli strain cannot manufacture tryptophan. The tester strains will not be able to grow without amino acid supplementation, unless the mutated gene is changed back to the correct DNA sequence (reversion mutation). Being exposed to a mutagenic chemical increases the chance that the mutant gene will be restored to the correct sequence, which allows the bacteria to grow and form colonies. Each substance under study is tested in a variety of bacterial strains with different types of altered DNA sequences in order to provide a comprehensive assessment of the mutagenic potential of the substance.
Some non-mutagenic substances are converted to mutagenic substances when metabolized by the liver; in contrast, some substances that are mutagenic in their natural state are converted to non-mutagens by the liver. All substances are tested in their natural state, as well as in the presence of liver enzymes that can produce this metabolic conversion of the test substance. Extracts of rat, hamster, or mouse liver enzymes (S9 mix) are used for this purpose.
D. Preparing the Cultures
Multiple sets of cultures are prepared using a range of doses and different amounts of liver enzymes for each bacterial strain. Each culture is prepared in a test tube containing a suspension of one bacterial strain and either an S9 mix or plain buffer solution. Then the test substance is added. Negative control cultures are established using the same ingredients, but without the test substance. Positive control cultures are established using known mutagens active in particular bacterial strains and metabolic conditions (for example, with or without S9). Once prepared, each culture is incubated for 20 minutes at 37° C. Agar is then added to the cultures, and the contents of each tube are poured onto the surface of a Petri dish that was prepared with standard bacterial culture medium. The plates are then incubated, usually for two days.
Depending on the substance to be tested, the exposure and incubation processes may be modified. These variations include:
- Elimination of the 20-minute incubation period in a test tube prior to plating (this method is referred to as the standard plate incorporation method)
- Enzymatic reduction of azo and diazo substances (this process occurs in the intestine or liver of animals) using a chemical called flavin mononucleotide (FMN) or intestinal bacterial preparations from rats
- Testing in sealed chambers such as desiccators for volatile and gaseous chemicals.
To validate the test, a trained investigator compares the number of colonies on the chemical-treated plates to the number of colonies on the negative control plates. If the substance under test is mutagenic, the chemical-treated plates will have a much greater number of colonies than the negative control plates.
- A positive response is a reproducible, dose-related increase in mutant colonies in any single strain, with or without the addition of S9 metabolic enzymes. While there is no minimum percentage of increase required for a result to be considered positive, a twofold increase in mutant colonies in a treated plate is usually considered to be a positive (mutagenic) response.
[…]

Row | SMILES | outcome
1 | CC(O)COC(C)(C)C (centres undefined) | active; positive
2 | CCc1ccccc1O | inactive; negative
3 | COC(=O)Nc1nc2ccccc2[nH]1 | active; positive
4 | O=C(O)CO | inactive; negative
5 | CC(=O)OC/C=C(\C)CCC=C(C)C | inactive; negative
6 | CC(C)Cc1nccs1 | active; positive
7 | C[S+](CC[C@H](N)C(=O)[O-])C[C@H]1O[C@@H](n2cnc3c(N)ncnc32)[C@H](O)[C@@H]1O (some centres undefined) | inactive; negative
8 | CCN(CC)c1ccccc1 | inactive; negative
9 | C=Cc1ccccc1Cl | inactive; negative
10 | CN(C)CCN(Cc1cccs1)c1ccccn1 | inactive; negative
11 | c1ccc(SCCSc2ccccc2)cc1 | inactive; negative
12 | OCC#CCO | inactive; negative
13 | COP(=O)(O)O | inactive; negative
14 | Oc1ccc(/C=C/c2cc(O)cc(O)c2)cc1 | inactive; negative
15 | Cc1ccc(N)c([N+](=O)[O-])c1 | active; positive
16 | COc1ccc(C(Cl)=C(c2ccc(OC)cc2)c2ccc(OC)cc2)cc1 | inactive; negative
17 | Nc1ccc(N=Nc2cccc(N=Nc3ccc(N)cc3N)c2)c(N)c1 | active; positive
18 | Nc1ccccc1C(=O)O | inactive; negative
19 | Nc1cccc2c(N)cccc12 | active; positive
20 | CNC(=O)CSP(=S)(OC)OC | active; positive
21 | CC[C@H]1OC(=O)[C@H](C)[C@@H](O[C@H]2C[C@@](C)(OC)[C@@H](O)[C@H](C)O2)[C@H](C)[C@@H](O[C@@H]2O[C@H](C)C[C@H](N(C)C)[C@H]2O)[C@](C)(O)C[C@@H](C)C(=O)[C@H](C)[C@@H](O)[C@]1(C)O | inactive; negative
22 | COc1cc(/C=C/C(=O)CC(=O)/C=C/c2ccc(O)c(OC)c2)ccc1O | inactive; negative
23 | CCc1ccccc1 | inactive; negative
24 | NC(N)=NC(N)=NCCc1ccccc1 | inactive; negative
25 | C=CC(=O)OCC | active; weakly positive

Row | SMILES | outcome
26 | Nc1nc(=S)c2[nH]cnc2[nH]1 | active; positive
27 | COc1ccc(N)cc1 | active; positive
28 | Clc1ccc(N=Nc2ccc(Cl)c(Cl)c2)cc1Cl | active; positive
29 | NC(N)=S | inactive; negative
30 | COc1cc(CNC(=O)CCCC/C=C/C(C)C)ccc1O | inactive; negative
31 | Cc1cc2nc3c(=O)[nH]c(=O)nc-3n(C[C@H](O)[C@H](O)[C@H](O)CO)c2cc1C | inactive; negative
32 | [Cl-].[Cl-].[Sn+2] | inactive; negative
33 | O=[N+]([O-])c1cccc(Cl)c1Cl | active; weakly positive
34 | CC(C)[C@@H]1CC[C@@H](C)C[C@H]1O | inactive; negative
35 | Cc1cc([N+](=O)[O-])ccc1N | active; positive
36 | OC(c1ccc(Cl)cc1)(c1ccc(Cl)cc1)c1ccc(Cl)cc1 | inactive; negative
37 | O=C(O)C(Cl)Cl | active; positive
38 | C1CCC2OC2C1 (centres undefined) | active; positive
39 | CC(O)CBr (centres undefined) | active; positive
40 | N#CCC#N | inactive; negative
41 | CCC1(c2ccccc2)C(=O)NC(=O)NC1=O | active; weakly positive
42 | O=C1[O][Bi][O]c2ccccc21 | inactive; negative
43 | O=C(O)C(Cl)(Cl)Br | active; positive
44 | C=CCc1cc(OC)c2c(c1)OCO2 | inactive; negative
45 | COc1cc(-c2ccc(N=Nc3ccc4c(S(=O)(=O)O)cc(S(=O)(=O)O)c(N)c4c3O)c(OC)c2)ccc1N=Nc1ccc2c(S(=O)(=O)O)cc(S(=O)(=O)O)c(N)c2c1O | active; positive
46 | CCCCCCCCCCCCCC(=O)N[N+](C)(C)CC(C)[O-] (centres undefined) | inactive; negative
47 | C1COCCO1 | inactive; negative
48 | OCC1CO1 (centres undefined) | active; positive
49 | CCCCCCCCc1ccc(Nc2ccc(CCCCCCCC)cc2)cc1 | inactive; negative
50 | CN(C)c1ccc(Cc2ccc(N(C)C)cc2)cc1 | active; positive

Row | SMILES | outcome
51 | C=CCOC(C)=O | active; positive
52 | CCOCCOC(=O)C=Cc1ccc(OC)cc1 | inactive; negative
53 | OCCCBr | active; positive
54 | O=C(O)C(Cl)(Cl)Cl | inactive; negative
55 | CCOC(=O)CC(SP(=O)(OC)OC)C(=O)OCC (centres undefined) | inactive; negative
56 | NC1NC=CS1 (centres undefined) | active; positive
57 | CNc1ccccc1N | active; positive
58 | O=C1C(c2[nH]c3ccc(S(=O)(=O)O)cc3c2O)=Nc2ccc(S(=O)(=O)O)cc21 | active; positive
59 | Clc1cc2c(cc1Cl)Oc1cc(Cl)c(Cl)cc1O2 | inactive; negative
60 | Clc1nc(Cl)nc(Nc2ccccc2Cl)n1 | inactive; negative
61 | [O-][n+]1ccccc1SSc1cccc[n+]1[O-] | inactive; negative
62 | Nc1ncn([C@@H]2O[C@H](CO)[C@@H](O)[C@H]2O)c(=O)n1 | active; positive
63 | OCCN1CC1 | active; positive
64 | Nc1ccccc1C(=O)OCCc1ccccc1 | inactive; negative
65 | COC(C)(C)CC(C)=O | inactive; negative
66 | CCCCCCCC/C=C\CCCCCCCC(=O)OC | inactive; negative
67 | OCC(CO)(CBr)CBr | active; positive
68 | O=C1NC(=O)c2cc([N+](=O)[O-])ccc21 | active; positive
69 | CC(C)(C)OOC(C)(C)CCC(C)(C)OOC(C)(C)C | inactive; negative
70 | COc1cc([N+](=O)[O-])ccc1N=NC(C(C)=O)C(=O)Nc1ccccc1OC (centres undefined) | inactive; negative
71 | O=C(O)CCCCC1CCSS1 (centres undefined) | inactive; negative
72 | NC1CCC(CC2CCC(N)CC2)CC1 (centres undefined) | inactive; negative
73 | FC(F)(F)c1ccc(Cl)cc1 | inactive; negative
74 | Nc1ccn([C@@H]2CS[C@H](CO)O2)c(=O)n1 | inactive; negative
75 | Cc1ccc2c(c1[N+](=O)[O-])C(=O)c1ccccc1C2=O | active; positive

Row | SMILES | outcome
76 | C=C(C)[C@@]12O[C@@]3(c4ccccc4)O[C@@H]1[C@@H]1[C@@H]4O[C@]4(CO)[C@@H](O)[C@]4(O)C(=O)C(C)=C[C@H]4[C@@]1(O3)[C@H](C)[C@H]2OC(=O)/C=C/C=C/c1ccccc1 | inactive; negative
77 | CCN(CC)c1ccc2c(C)cc(=O)oc2c1 | inactive; negative
78 | CCCCOC(=O)c1ccc(O)cc1 | inactive; negative
79 | O=C/C=C/c1ccccc1 | active; weakly positive
80 | O=Nc1ccc(NO)cc1 | active; positive
81 | FC(Cl)(Cl)C(F)(Cl)Cl | active; weakly positive
82 | CC(=O)C(N=Nc1ccc(-c2ccc(N=NC(C(C)=O)C(=O)Nc3ccccc3)c(Cl)c2)cc1Cl)C(=O)Nc1ccccc1 (centres undefined) | inactive; negative
83 | ClCc1ccccc1 | active; weakly positive
84 | Cc1ccc(C(=O)O)cc1[N+](=O)[O-] | active; positive
85 | CCCCCCC(=O)O | inactive; negative
86 | NCC(=O)O | inactive; negative
87 | O=[N+]([O-])c1ccccc1C(F)(F)F | inactive; negative
88 | CCCBr | inactive; negative
89 | CCC[CH2][Sn]([CH2]CCC)([O]C(C)=O)[O]C(C)=O | inactive; negative
90 | C[C@@H]1Cc2c(Cl)cc(C(=O)N[C@@H](Cc3ccccc3)C(=O)O)c(O)c2C(=O)O1 | inactive; negative
91 | [O]=[Cr](=[O])([OH])[O][Cr](=[O])(=[O])[OH] | active; positive
92 | CC(C)=CCC1CCCC1=O (centres undefined) | inactive; negative
93 | Nc1cccc(O)c1 | active; positive
94 | O=C(O)C(Br)Br | active; positive
95 | C#CCO | active; positive
96 | CC1CCC2CC1C2(C)C (centres undefined) | inactive; negative
97 | Cc1ccc2nc(-c3ccc(N)cc3)sc2c1S(=O)(=O)O | active; positive
98 | CCCNC(=O)NS(=O)(=O)c1ccc(Cl)cc1 | inactive; negative
99 | CCC[CH2][Sn]([Cl])([Cl])[Cl] | inactive; negative
